Source: ChEMBL document CHEMBL3046964, “Synthesis of novel building blocks of 1H-pyrrolo[3,4-b]quinolin-3(2H)-one and evaluation of their antitumor activity” (Med Chem Res, 2013)

How the values were obtained:
A549 = experiment: Cytotoxicity against Homo sapiens (human) A549 cells assessed as growth inhibition after 48 hr by MTT assay; assay type: functional, cell-based; settings: A549, 48 h
SK-N-SH = experiment: Cytotoxicity against Homo sapiens (human) SK-N-SH cells assessed as growth inhibition after 48 hr by MTT assay; assay type: functional, cell-based

SMILES	IC50 (A549)	IC50 (SK-N-SH)
CC(C)N(C(=O)Cc1ccc(/C=C/CN2Cc3cc4ccccc4nc3C2=O)cc1)C(C)C	70.1 µM	43.2 µM
O=C(Cc1ccc(/C=C/CN2Cc3cc4ccccc4nc3C2=O)cc1)N1CCCCC1	67.8 µM	38.3 µM
O=C(O)Cc1ccc(/C=C/CN2Cc3cc4ccccc4nc3C2=O)cc1	–	56.6 µM
O=C(Cc1ccc(/C=C/CN2Cc3cc4ccccc4nc3C2=O)cc1)N1CCN(c2ccccc2)CC1	53.5 µM	51.9 µM
COc1cccc2c1C(=O)c1c(O)c3c(c(O)c1C2=O)C[C@@](O)(C(=O)CO)C[C@@H]3O[C@H]1C[C@H](N)[C@H](O)[C@H](C)O1 [DOXORUBICIN]	24.3 µM	–
COc1ccc(N2CCN(C(=O)Cc3ccc(CCCN4Cc5cc6ccccc6nc5C4=O)cc3)CC2)cc1	68.8 µM	48.9 µM
O=C(Cc1ccc(CCCN2Cc3cc4ccccc4nc3C2=O)cc1)N1CCN(c2ccc([N+](=O)[O-])cc2)CC1	–	40.2 µM
O=C(Cc1ccc(/C=C/CN2Cc3cc4ccccc4nc3C2=O)cc1)N1CCN(c2ccc([N+](=O)[O-])cc2)CC1	43.8 µM	56.2 µM
O=C(Cc1ccc(/C=C/CN2Cc3cc4ccccc4nc3C2=O)cc1)N1CCOCC1	46.2 µM	8.62 µM
COc1ccc(N2CCN(C(=O)Cc3ccc(/C=C/CN4Cc5cc6ccccc6nc5C4=O)cc3)CC2)cc1	–	56.3 µM
O=C(Cc1ccc(CCCN2Cc3cc4ccccc4nc3C2=O)cc1)N1CCN(c2ccccc2)CC1	65.4 µM	42 µM
O=C(Cc1ccc(/C=C/CN2Cc3cc4ccccc4nc3C2=O)cc1)NCCO	–	42.1 µM
O=c1c2ccccc2nc2n1Cc1cc3ccccc3nc1-2 [LUOTONIN A]	61.2 µM	61.1 µM
O=C(Cc1ccc(/C=C/CN2Cc3cc4ccccc4nc3C2=O)cc1)N1CCCC1	–	57.2 µM
